In patent US7105531B2, “Tricyclic protein kinase inhibitors” (WYETH, priority 1999, dated 2006):
Structures can show the parent of a compound that is named as a salt.

melting point	SMILES
171 to 173 °C	COc1cc(Nc2c(C#N)cnc3cc4cc(OC)c(OC)cc4cc23)c(C)cc1Cl
115 to 119 °C (dec.)	COc1cc2cc3ncc(C#N)c(Nc4ccc(Cl)cc4Cl)c3cc2cc1OCCN1CCOCC1
115 to 120 °C (dec.)	COc1cc2cc3ncc(C#N)c(Nc4cc(OC)c(OC)c(OC)c4)c3cc2cc1OCCN1CCN(C)CC1
135 to 138 °C (dec.)	COc1cc2cc3ncc(C#N)c(Nc4cc(OC)c(OC)c(OC)c4)c3cc2cc1OCCN1CCOCC1
150 to 160 °C	COc1cc(Nc2c(C#N)cnc3cc4cc(OC)c(OCCN5CCC(O)CC5)cc4cc23)c(Cl)cc1Cl
193 to 198 °C	COc1cc(Nc2c(C#N)cnc3cc4cc(OCCN5CCC(O)CC5)c(OC)cc4cc23)c(Cl)cc1Cl
210 to 215 °C	COc1cc(Nc2c(C#N)cnc3cc4cc(OCCN5CCC(O)CC5)c(OC)cc4cc23)c(Cl)cc1C
206 to 222 °C	COc1cc(Nc2c(C#N)cnc3cc4cc(OCCN5CCOCC5)c(OC)cc4cc23)c(Cl)cc1F
240 to 241 °C	COc1cc(Nc2c(C#N)cnc3cc4cc(OC)c(OCCN5CCOCC5)cc4cc23)c(Cl)cc1C
> 265 °C	COc1cc2cc3ncc(C#N)c(Nc4ccc(Oc5ccccc5)cc4)c3cc2cc1OC (as salt: salt) [Example 11, 7,8-Dimethoxy-4-(4-phenoxyanilino)benzo[g]quinoline-3-carbonitrile]
> 280 °C	COc1cc2cc3ncc(C#N)c(Nc4ccc(F)c(Cl)c4)c3cc2cc1OC (as salt: salt) [Example 13, 4-(3-Chloro-4-fluoroanilino)-7,8-dimethoxybenzo[g]quinoline-3-carbonitrile]
257 to 259 °C	N#Cc1cnc2cc3ccccc3cc2c1Nc1ccc(F)c(Cl)c1 [Example 4, 4-(3-Chloro-4-fluoroanilino)benzo[g]quinoline-3-carbonitrile]
195 to 197 °C	COc1cc(Nc2c(C#N)cnc3cc4ccccc4cc23)c(C)cc1Cl [Example 5, 4-(4-Chloro-5-methoxy-2-methylanilino)benzo[g]quinoline-3-carbonitrile]
271 to 273 °C	COc1cc2cc3ncc(C#N)c(Nc4ccc(Cl)cc4Cl)c3cc2cc1OC [Example 14, 4-(2,4-Dichloroanilino)-7,8-dimethoxybenzo[g]quinoline-3-carbonitrile]
> 260 °C	N#Cc1cnc2cc3cc(O)c(O)cc3cc2c1Nc1ccc(Cl)cc1Cl [Example 15, 4-(2,4-Dichloroanilino)-7,8-dihydroxybenzo[g]quinoline-3-carbonitrile]
148 to 150 °C	COc1ccc(C)c(Nc2c(C#N)cnc3c2C=C2N=C(NCCN4CCOCC4)N=C2C3)c1 [Example 31, 8-(5-Methoxy-2-methylanilino)-2-{[2-(4-morpholinyl)ethyl]amino}imidazo [4,5-g]quinoline-7-carbonitrile]
175 to 178 °C	COc1cc(Nc2c(C#N)cnc3c2C=C2N=C(NCCN4CCOCC4)N=C2C3)cc(OC)c1OC [Example 33, 2-{[2-(4-Morpholinyl)ethyl]amino}-8-(3,4,5-trimethoxyanilino)imidazo[4,5-g]quinoline-7-carbonitrile]
> 300 °C	N#Cc1cnc2c(c1Nc1ccc(Oc3ccccc3)cc1)C=C1N=C(N)N=C1C2 [Example 34, 2-Amino-8-(4-phenoxyanilino)imidazo[4,5-g]quinoline-7-carbonitrile]
286 to 288 °C	N#Cc1cnc2c(c1Nc1cccc(Br)c1)C=C1N=CN=C1C2 [Example 37, 8-(3-Bromo-phenylamino)imidazo[4,5-g]quinoline-7-carbonitrile]
257 to 260 °C (dec.)	Cc1ccc(Nc2c(C#N)cnc3c2C=C2N=CN=C2C3)cc1O [Example 41, 8-(3-Hydroxy-4-methylphenylamino)imidazo[4,5-g]quinoline-7-carbonitrile]
258 to 260 °C (dec.)	COc1cc(Nc2c(C#N)cnc3c2C=C2N=C(CN4CCOCC4)N=C2C3)cc(OC)c1OC [Example 48, 2-(4-Morpholinylmethyl)-8-(3,4,5-trimethoxyanilino)imidazo[4,5-g]quinoline-7-carbonitrile]
> 260 °C	N#Cc1cnc2cc3c(cc2c1Nc1ccc(Oc2ccccc2)cc1)ncn3CCN1CCOCC1 [Example 58, 3-[2-(4-Morpholinyl)ethyl]-8-(4-phenoxyanilino)-3H-imidazo[4,5-g]quinoline-7-carbonitrile]
240 to 242 °C	N#Cc1cnc2c(sc3ccccc32)c1Nc1cccc(Br)c1 [Example 65, 4-(3-Bromophenylamino)benzo[4,5]thieno[3,2-b]pyridine-3-carbonitrile]

melting point	SMILES
250 to 251 °C	N#Cc1cnc2c(sc3ccccc32)c1Nc1ccc(Cl)cc1F [Example 66, 4-(4-Chloro-2-fluorophenylamino)benzo[4,5]thieno[3,2-b]pyridine-3-carbonitrile]
234 to 236 °C	COc1cc(Nc2c(C#N)cnc3c2sc2ccccc23)c(Cl)cc1Cl [Example 68, 4-(2,4-Dichloro-5-methoxyphenylamino)benzo[4,5]thieno[3,2-b]pyridine-3-carbonitrile]
260 °C (dec.)	Cc1ccc(Nc2c(C#N)cnc3c2sc2ccccc23)cc1O [Example 70, 4-(3-Hydroxy-4-methylphenylamino)benzo[4,5]thieno[3,2-b]pyridine-3-carbonitrile]
174 to 175 °C	N#Cc1cnc2c(sc3ccccc32)c1Oc1ccc(Cl)cc1F [Example 71, 4-(4-Chloro-2-fluorophenoxy)benzo[4,5]thieno[3,2-b]pyridine-3-carbonitrile]
266 to 268 °C (dec.)	COc1cc(Nc2c(C#N)cnc3c2sc2ccc(N)cc23)c(C)cc1Cl [Example 76, 8-Amino-4-(4-chloro-5-methoxy-2-methylanilino)[1]benzothieno[3,2-b]pyridine-3-carbonitrile]
256 to 258 °C	N#Cc1cnc2c(sc3c(N)cccc32)c1Nc1cccc(Br)c1 [Example 81, 6-Amino-4-(3-bromoanilino)[1]benzothieno[3,2-b]pyridine-3-carbonitrile]
242 to 245 °C	N#Cc1cnc2c(oc3ccccc32)c1Nc1cccc(Br)c1 [Example 85, 4-(3-Bromophenylamino)benzo[4,5]furo[3,2-b]pyridine-3-carbonitrile]
259 to 261 °C	N#Cc1cnc2c(oc3ccccc32)c1Nc1ccc(Cl)cc1F [Example 86, 4-(4-Chloro-2-fluorophenylamino)benzo[4,5]furo[3,2-b]pyridine-3-carbonitrile]
240 °C (dec.)	Cc1ccc(Nc2c(C#N)cnc3c2oc2ccccc23)cc1O [Example 87, 4-(3-Hydroxy-4-methylphenylamino)benzo[4,5]furo[3,2-b]pyridine-3-carbonitrile]
175 to 179 °C	N#Cc1cnc2c(oc3ccccc32)c1Nc1ccc(Oc2ccccc2)cc1 [Example 88, 4-(4-Phenoxyphenylamino)benzo[4,5]furo[3,2-b]pyridine-3-carbonitrile]
138 to 140 °C	N#Cc1cnc2c(oc3ccccc32)c1Oc1ccc(Cl)cc1F [Example 89, 4-(4-Chloro-2-fluorophenoxy)-benzo[4,5]furo[3,2-b]pyridine-3-carbonitrile]
210 to 213 °C	N#Cc1cnc2c(sc3ccc([N+](=O)[O-])cc32)c1Nc1ccc(Cl)cc1Cl [Example 90, 4-(2,4-Dichloroanilino)-8-nitro[1]benzothieno[3,2-b]pyridine-3-carbonitrile]
> 300 °C	N#Cc1cnc2c(sc3ccc([N+](=O)[O-])cc32)c1Nc1cccc(Br)c1 [Example 91, 4-(3-Bromoanilino)-8-nitro[1]benzothieno[3,2-b]pyridine-3-carbonitrile]
295 to 300 °C (dec.)	N#Cc1cnc2c(sc3ccc(N)cc32)c1Nc1cccc(Br)c1 [Example 92, 8-Amino-4-(3-bromoanilino)-[1]benzothieno[3,2-b]pyridine-3-carbonitrile]
> 300 °C (dec.)	C=CC(=O)Nc1ccc2sc3c(Nc4cccc(Br)c4)c(C#N)cnc3c2c1 [Example 93, N-[4-(3-Bromoanilino)-3-cyano[1]benzothieno[3,2-b]pyridin-8-yl]acrylamide]
286 to 287 °C	C=CC(=O)Nc1cccc2c1sc1c(Nc3cccc(Br)c3)c(C#N)cnc12 [Example 94, N-[4-(3-Bromoanilino)-3-cyano[1]benzothieno[3,2-b]pyridin-6-yl]acrylamide]
215 to 217 °C	COc1ccc2cc3ncc(C#N)c(Nc4ccc(Cl)cc4Cl)c3cc2c1 [Example 103, 4-(2,4-Dichloroanilino)-7-methoxybenzo[g]quinoline-3-carbonitrile]
> 260 °C	COc1ccc2cc3c(Nc4ccc(Cl)cc4Cl)c(C#N)cnc3cc2c1 [Example 104, 4-(2,4-Dichloroanilino)-8-methoxybenzo[g]quinoline-3-carbonitrile]
> 300 °C	N#Cc1cnc2cc3ccc(O)cc3cc2c1Nc1ccc(Cl)cc1Cl [Example 105, 4-(2,4-Dichloroanilino)-7-hydroxybenzo[g]quinoline-3-carbonitrile]
267 to 269 °C	N#Cc1cnc2cc3cc(O)ccc3cc2c1Nc1ccc(Cl)cc1Cl [Example 106, 4-(2,4-Dichloroanilino)-8-hydroxybenzo[g]quinoline-3-carbonitrile]
115 to 117 °C	CN(C)CCOc1ccc2cc3ncc(C#N)c(Nc4ccc(Cl)cc4Cl)c3cc2c1 [Example 107, 4-(2,4-Dichloroanilino)-7-[2-(dimethylamino)ethoxy]benzo[g]quinoline-3-carbonitrile]
132 to 168 °C (dec.)	COc1cc(Nc2c(C#N)cnc3cc4cc(OCCCl)c(OC)cc4cc23)c(C)cc1Cl [Example 122, 4-(4-chloro-5-methoxy-2-methylanilino)-7-methoxy-8-(chloroethoxy)benzo[g]quinoline-3-carbonitrile]
239 to 255 °C (dec.)	COc1cc(Nc2c(C#N)cnc3cc4cc(OCCCl)c(OC)cc4cc23)c(Cl)cc1Cl [Example 126, 4-(2,4-dichloro-5-methoxyanilino)-7-methoxy-8-(chloroethoxy)benzo[g]quinoline-3-carbonitrile]
